Literature values in US20230084129A1, “PHARMACEUTICAL COMPOSITION COMPRISING ESOMEPRAZOLE AND SODIUM BICARBONATE HAVING EXCELLENT RELEASE PROPERTIES” (Chong Kun Dang Pharmaceutical Corp., priority 2020, published 2023).

Conditions: aqueous solution having a pH of 3 or less

Compound: COc1ccc2nc([S@@+]([O-])Cc3ncc(C)c(OC)c3C)[nH]c2c1 [esomeprazole, (S)-5-methoxy-2-[(4-methoxy-3,5-dimethyl-2-pyridinyl)-methyl]sulfinyl-1H-benzimidazole]
- degradation half-life: less than 10 minutes
